From PMC7912796, “Design, Synthesis, Anticancer Activity, and Solid Lipid Nanoparticle Formulation of Indole- and Benzimidazole-Based Compounds as Pro-Apoptotic Agents Targeting Bcl-2 Protein” (Pharmaceuticals, 2021)

How the values were obtained:
[1] = tested on: MDCK/kidney non-cancerous cells; assay: MTT-cell proliferation assay on non-cancerous cell line; assay type: cell-based; conditions: 48 h drug exposure, mean ± SEM
Source text: The potential anti-cancer activity of all fourteen final synthesized compounds was investigated through MTT cytotoxic assay against two different human solid cancerous cell lines; A549/lung and MDA-MB-231/breast adenocarcinoma. The adopted cell-proliferation assay assessed % cell viability in relation to the reducing activity of cellular NADPH-dependent cellular oxidoreductases on tetrazolium dye, MTT [2,5-diphenyl-3-(4,5-dimethylthiazol-2-yl)tetrazolium bromide salt], for furnishing an easily quantified insoluble chromogenic formazan. For each drug concentration, 0.1, 1, 10, and 100 μM, the % cell-viability was estimated relative to negative control following a complete 48 h of drug treatment. Both 5-fluorouracil (5-FU) and doxorubicin (DOX) were set as positive index comparators. Moreover, the safety profile of the synthesized compounds was further investigated by examining their in-vitro cytotoxicity on non-cancerous cell line; MDCK/kidney cells.
Evaluating the cytotoxicity of tested compounds on two cancer cell lines (A549/lung and MDA-MB-231/breast adenocarcinoma) and non-cancerous (MDCK/kidney cells) was performed while adopting the formerly described method with small alterations. Cancer cell lines were propagated within Dulbecco’s Modified Eagle Medium-High Glucose (Cat.#: P0103; DMEM_High Glucose with Na.Pyruvate and stable Glutamine, Biowest^TM, Nuaillé, France), while MDA-MB-231 cells were propagated within RPMI-1640 L-Glutamine medium (Cat.#:12-604F; Lonza-Verviers SPRL^TM, Verviers, Belgium). The culturing media were supplemented via 1% antibiotic-antimycotic 100X (Cat.#: L0010; Biowest^TM, Nuaillé, France) and 10% fetal bovine serum (FBS) (Cat.#: EU-000-H; Seralab^TM, West Sussex, UK). Cells were seeded as triplicates within 96-well plate, at 1 × 10^4 cells per well density, after being counted and viability checked using the trypan blue staining solution (Cat.# ab233465; Abcam^TM, Cambridge, MA, USA). Seeded cells were permitted to adhere for 24 h under 5% CO2 and at 37 °C incubating conditions. The assigned compounds were dissolved in 500 µL DMSO affording the stock solution (100 mM) being ready for more diluting within the whole medium to obtain the compound’s final concentrations; 0.1, 1, 10, 100 µM for cell treatments. […] Following 24 h compound-cell treatment, the medium was substituted by fresh one and cells were permitted to develop for 48 h. At four hours prior the end of incubation, 10 μL MTT Sigma-Aldrich^TM (5 mg/mL in PBS 1X without magnesium and calcium; Cat.# 17-516F, Lonza-Verviers^TM, Basel, Switzerland) were added to all wells. Following the complete 48 h incubation, 100 μL DMSO was all added to all wells where they were subsequently centrifuged at 4000 rpm for 5 min allowing the formazan crystals of formazan to precipitate. Color was established and intensities were recorded at 490 nm using Synergy-Neo2® Hybrid MultiMode Plate Reader (BioTek^TM, Winooski, VT, USA), while subtracting the multi-well plates background absorbance at 690 nm. Percentage cell viability was estimated using the subsequent formula: % cell-viability = (average absorbance of treated wells/average absorbance of controls) × 100.

[2] = tested on: human cytochrome c protein; assay: ELISA protein level; assay type: cell-based; conditions: 13 μM, 48 h, MDA-MB-231; control 0.295 ng/mL
Procedure: Dissection of the compound’s proapoptotic activity was proceeded through gene expression analysis for key genes, controlling apoptosis pathway, as well as protein level determination. Following 8b treatment for 48 h, alterations within MDA-MB-231/breast cancer cell expression of Bcl-2, Bax, caspase-3, -8, and -9 genes, as well as cytochrome c and class-III β-tubulin proteins levels were determined using real-time polymerase chain reaction (RT-PCR) or ELISA technique, respectively. Typically, Bcl-2, Bax, caspases, and cytochrome c proteins contributes within the regulation of apoptotic signaling. Acting as apoptotic activator (Bax) or inhibitor (Bcl-2), the Bcl-2 family proteins play their significant role in apoptosis. The caspases family are cysteine proteases being classified as either executioners; caspase-3, -6, or -7 or initiators; caspase-8 and -9 [36]. Regrading caspase-8, its activation is proceeded through extrinsic death-receptor dependent apoptotic pathway, while, caspase-9 activation is within the event of intrinsic mitochondrial cytochrome c leakage. Additionally, participation of activated caspase-3 is to be essential for caspase-8 activation. […]
Quantikine® Colorimetric Sandwich-ELISA Kit (Cat.#: DCTC0; R&D Systems, Minneapolis, MN, USA) was used for quantitating the targeted human cytochrome c protein through immunoassay protocol. […]

[3] = tested on: MDA-MB-231/breast cancer cells; assay: Morphological assessment; assay type: cell-based, human; conditions: 0.1-100 µM, 48 h, phase-contrast microscope
Procedure: The impact of 8b on cancerous cellular morphology was evaluated over different concentrations following 48 h exposure time. In MDA-MB-231/breast cancer cells, normal membrane integrity and control group nucleus morphology was depicted for cells within vehicle negative control group (Figure 4A). […] At 100 µM concentration, the cell number became highly declined and great loss of cellular polyhedral shape was observed as cells acquired the tentacled spindle-shaped morphology (Figure 4E). These morphological changes were more drastic with 8b as compared to 5-FU for similar concentrations (100 µM) (Figure 4F).
The impact of this tested final compounds on the morphology of treated MDA-MB-231/breast cancer cell line was investigated, through planting cells within 6-well plates and subsequently incubated with 0.1, 1, 10, 100 µM of 8b […]. Variations within the cells’ morphology were identified via Olympus®-CKX53 Inverted Metallurgical light microscope (Olympus^TM, Center Valley, PA, USA), snapped by Olympus® Digital Camera, and analyzed by OLYMPUS® Stream image analysis software.

## CCCc1ccc(-c2nn(-c3ccccc3)cc2C=NNC(=O)c2cc3ccccc3[nH]2)cc1 [Compound 8b, N′-((1-phenyl-3-(4-propylphenyl)-1H-pyrazol-4-yl)methylene)-1H-indole-2-carbohydrazide]
[1]
  IC50: 92.75 ± 0.43 µM
[1]; Canis lupus familiaris, MDCK, 48 h
  IC50: 92 µM
[2]
  cytochrome c level: 0.675 ng/mL
[3]
  cell morphology alterations: significant cell morphology alteration, intercellular space dilatation, and cellular shrinkage
